# Test results published in PubChem BioAssay (NCI).
#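 How tested: cells in 96-well plates exposed to compound for 48 hours at five concentrations. TGI: total growth inhibition.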
# Legend:
# Assay in all cases: NCI tumour cell line growth inhibition, 48 h
# HCC-2998 colon = system: HCC-2998 colon
# UACC-62 melanoma = system: UACC-62 melanoma
# MOLT-4 leukemia = system: MOLT-4 leukemia
# UO-31 renal = system: UO-31 renal
# A549 NSCLC = system: A549 NSCLC
# UACC-257 melanoma = system: UACC-257 melanoma
# NCI-H226 lung = system: NCI-H226 lung
# EKVX NSCLC = system: EKVX NSCLC
# RPMI-8226 leukemia = system: RPMI-8226 leukemia
# SNB-75 CNS = system: SNB-75 CNS
# SF-268 CNS = system: SF-268 CNS
# OVCAR-5 ovarian = system: OVCAR-5 ovarian
# SK-MEL-2 melanoma = system: SK-MEL-2 melanoma
# OVCAR-3 ovarian = system: OVCAR-3 ovarian
# SR leukemia = system: SR leukemia
# LXFL 529 NSCLC = system: LXFL 529 NSCLC
# NCI-H460 lung = system: NCI-H460 lung
# NCI-H23 lung = system: NCI-H23 lung
# DMS 273 small cell lung = system: DMS 273 small cell lung
# SN12C renal = system: SN12C renal
# HCT-15 colon = system: HCT-15 colon
# COLO 205 colon = system: COLO 205 colon
# M14 melanoma = system: M14 melanoma
# SF-295 CNS = system: SF-295 CNS
# DMS 114 small cell lung = system: DMS 114 small cell lung
# KM12 colon = system: KM12 colon
# SF-539 CNS = system: SF-539 CNS
# LOX IMVI melanoma = system: LOX IMVI melanoma
# TK-10 renal = system: TK-10 renal
# KM20L2 colon = system: KM20L2 colon
# A498 renal = system: A498 renal
# 786-0 renal = system: 786-0 renal
# SK-MEL-28 melanoma = system: SK-MEL-28 melanoma
# HT29 colon = system: HT29 colon
# OVCAR-4 ovarian = system: OVCAR-4 ovarian
# HOP-18 NSCLC = system: HOP-18 NSCLC
# SNB-78 CNS = system: SNB-78 CNS
# SK-MEL-5 melanoma = system: SK-MEL-5 melanoma
# OVCAR-8 ovarian = system: OVCAR-8 ovarian
# HOP-92 NSCLC = system: HOP-92 NSCLC
# CCRF-CEM leukemia = system: CCRF-CEM leukemia
# HL-60(TB) leukemia = system: HL-60(TB) leukemia
# SNB-19 CNS = system: SNB-19 CNS
# CAKI-1 renal = system: CAKI-1 renal
# IGROV1 ovarian = system: IGROV1 ovarian
# RXF 393 renal = system: RXF 393 renal
# M19-MEL melanoma = system: M19-MEL melanoma
# K-562 leukemia = system: K-562 leukemia
# MALME-3M melanoma = system: MALME-3M melanoma
# HOP-62 NSCLC = system: HOP-62 NSCLC
# ACHN renal = system: ACHN renal
# DLD-1 colon = system: DLD-1 colon
# HCT-116 colon = system: HCT-116 colon
# XF 498 CNS = system: XF 498 CNS
# SK-OV-3 ovarian = system: SK-OV-3 ovarian
# NCI-H522 lung = system: NCI-H522 lung
# U251 CNS = system: U251 CNS
# SW-620 colon = system: SW-620 colon
compound,measurement,setting,value
C/C(CC(=O)Nc1ccc(Cl)c(Cl)c1)=N/NC(=O)C[N+](C)(C)C,TGI,HCC-2998 colon,> 100 µM
same,TGI,UACC-62 melanoma,> 100 µM
same,TGI,MOLT-4 leukemia,> 100 µM
same,TGI,UO-31 renal,> 100 µM
same,TGI,A549 NSCLC,> 100 µM
same,TGI,UACC-257 melanoma,> 100 µM
same,TGI,NCI-H226 lung,> 100 µM
same,TGI,EKVX NSCLC,> 100 µM
same,TGI,RPMI-8226 leukemia,63.4 µM
same,TGI,SNB-75 CNS,> 100 µM
same,TGI,SF-268 CNS,> 100 µM
same,TGI,OVCAR-5 ovarian,> 100 µM
same,TGI,SK-MEL-2 melanoma,> 100 µM
same,TGI,OVCAR-3 ovarian,> 100 µM
same,TGI,SR leukemia,43.2 µM
same,TGI,LXFL 529 NSCLC,> 100 µM
same,TGI,NCI-H460 lung,> 100 µM
same,TGI,NCI-H23 lung,> 100 µM
same,TGI,DMS 273 small cell lung,> 100 µM
same,TGI,SN12C renal,> 100 µM
same,TGI,HCT-15 colon,> 100 µM
same,TGI,COLO 205 colon,> 100 µM
same,TGI,M14 melanoma,> 100 µM
same,TGI,SF-295 CNS,> 100 µM
same,TGI,DMS 114 small cell lung,55.6 µM
same,TGI,KM12 colon,> 100 µM
same,TGI,SF-539 CNS,> 100 µM
same,TGI,LOX IMVI melanoma,35.5 µM
same,TGI,TK-10 renal,> 100 µM
same,TGI,KM20L2 colon,> 100 µM
same,TGI,A498 renal,> 100 µM
same,TGI,786-0 renal,> 100 µM
same,TGI,SK-MEL-28 melanoma,> 100 µM
same,TGI,HT29 colon,> 100 µM
same,TGI,OVCAR-4 ovarian,> 100 µM
same,TGI,HOP-18 NSCLC,> 100 µM
same,TGI,SNB-78 CNS,> 100 µM
same,TGI,SK-MEL-5 melanoma,> 100 µM
same,TGI,OVCAR-8 ovarian,> 100 µM
same,TGI,HOP-92 NSCLC,> 100 µM
same,TGI,CCRF-CEM leukemia,> 100 µM
same,TGI,HL-60(TB) leukemia,> 100 µM
same,TGI,SNB-19 CNS,> 100 µM
same,TGI,CAKI-1 renal,> 100 µM
same,TGI,IGROV1 ovarian,> 100 µM
same,TGI,RXF 393 renal,> 100 µM
same,TGI,M19-MEL melanoma,> 100 µM
same,TGI,K-562 leukemia,> 100 µM
same,TGI,MALME-3M melanoma,> 100 µM
same,TGI,HOP-62 NSCLC,> 100 µM
same,TGI,ACHN renal,> 100 µM
same,TGI,DLD-1 colon,> 100 µM
same,TGI,HCT-116 colon,> 100 µM
same,TGI,XF 498 CNS,> 100 µM
CC(=O)Nc1ccc(C2C(C(=O)Nc3ccccc3)=C(C)NC(C)=C2C(=O)Nc2ccccc2)cc1,TGI,HCC-2998 colon,> 100 µM
same,TGI,UACC-62 melanoma,> 100 µM
same,TGI,MOLT-4 leukemia,> 100 µM
same,TGI,UO-31 renal,> 100 µM
same,TGI,A549 NSCLC,> 100 µM
same,TGI,UACC-257 melanoma,> 100 µM
same,TGI,NCI-H226 lung,> 100 µM
same,TGI,EKVX NSCLC,> 100 µM
same,TGI,RPMI-8226 leukemia,> 100 µM
same,TGI,SNB-75 CNS,> 100 µM
same,TGI,SF-268 CNS,> 100 µM
same,TGI,OVCAR-5 ovarian,> 100 µM
same,TGI,SK-MEL-2 melanoma,> 100 µM
same,TGI,OVCAR-3 ovarian,> 100 µM
same,TGI,SK-OV-3 ovarian,> 100 µM
same,TGI,NCI-H522 lung,> 100 µM
same,TGI,U251 CNS,> 100 µM
same,TGI,LXFL 529 NSCLC,> 100 µM
same,TGI,NCI-H460 lung,> 100 µM
same,TGI,NCI-H23 lung,> 100 µM
same,TGI,DMS 273 small cell lung,> 100 µM
same,TGI,SN12C renal,> 100 µM
same,TGI,HCT-15 colon,> 100 µM
same,TGI,COLO 205 colon,> 100 µM
same,TGI,M14 melanoma,> 100 µM
same,TGI,SF-295 CNS,> 100 µM
same,TGI,DMS 114 small cell lung,> 82.5 µM
same,TGI,KM12 colon,> 100 µM
same,TGI,SF-539 CNS,> 100 µM
same,TGI,LOX IMVI melanoma,> 100 µM
same,TGI,TK-10 renal,> 100 µM
same,TGI,KM20L2 colon,> 100 µM
same,TGI,A498 renal,> 100 µM
same,TGI,786-0 renal,> 100 µM
same,TGI,SK-MEL-28 melanoma,> 100 µM
same,TGI,HT29 colon,> 100 µM
same,TGI,OVCAR-4 ovarian,> 100 µM
same,TGI,HOP-18 NSCLC,> 100 µM
same,TGI,SNB-78 CNS,> 100 µM
same,TGI,SK-MEL-5 melanoma,> 100 µM
same,TGI,OVCAR-8 ovarian,> 100 µM
same,TGI,SW-620 colon,> 100 µM
same,TGI,HOP-92 NSCLC,> 100 µM
same,TGI,CCRF-CEM leukemia,> 100 µM
same,TGI,HL-60(TB) leukemia,> 100 µM
same,TGI,SNB-19 CNS,> 100 µM
same,TGI,CAKI-1 renal,> 100 µM
same,TGI,IGROV1 ovarian,> 100 µM
same,TGI,RXF 393 renal,> 100 µM
same,TGI,M19-MEL melanoma,> 100 µM
same,TGI,K-562 leukemia,> 100 µM
same,TGI,MALME-3M melanoma,> 100 µM
same,TGI,HOP-62 NSCLC,> 100 µM
same,TGI,ACHN renal,> 100 µM
same,TGI,DLD-1 colon,> 100 µM
same,TGI,HCT-116 colon,> 100 µM
same,TGI,XF 498 CNS,> 100 µM
